How the values were obtained:
Assay in all cases: In vitro competitive activity-based protein profiling (Table 2, % inhibition at 1 μM)
Assay type in all cases: biochemical
FAAH = target: T1, FAAH (Mus musculus, UniProt O08914); conditions: read-out: % Inhibition at 1 μM FAAH
T1 sequence (O08914 1-579): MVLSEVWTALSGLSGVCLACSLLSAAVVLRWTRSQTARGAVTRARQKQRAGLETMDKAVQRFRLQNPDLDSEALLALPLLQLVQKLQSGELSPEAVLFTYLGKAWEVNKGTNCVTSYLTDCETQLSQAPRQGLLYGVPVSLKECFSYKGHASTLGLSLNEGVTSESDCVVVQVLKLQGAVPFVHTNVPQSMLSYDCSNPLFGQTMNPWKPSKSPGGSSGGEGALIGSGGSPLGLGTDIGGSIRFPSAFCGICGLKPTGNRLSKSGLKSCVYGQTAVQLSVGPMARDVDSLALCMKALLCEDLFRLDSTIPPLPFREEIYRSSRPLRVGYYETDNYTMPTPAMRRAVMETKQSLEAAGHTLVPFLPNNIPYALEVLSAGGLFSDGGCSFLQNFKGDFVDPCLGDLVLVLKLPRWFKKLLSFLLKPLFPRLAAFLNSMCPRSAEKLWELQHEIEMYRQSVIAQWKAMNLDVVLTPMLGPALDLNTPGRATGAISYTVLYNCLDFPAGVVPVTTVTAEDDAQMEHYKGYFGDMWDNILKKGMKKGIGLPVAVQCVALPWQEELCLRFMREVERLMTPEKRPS
Experimental: (§1) After 30 min, FP—Rh (1.0 μL, 50 μM in DMSO) was added and the mixture was incubated for another 30 min at 37° C. Reactions were quenched with SDS loading buffer (50 μL-4×) and run on SDS-PAGE. Following gel imaging, serine hydrolase activity was determined by measuring fluorescent intensity of gel bands corresponding to MAGL, ABHD6 and FAAH using ImageJ 1.43 u software.
(§2) hMAGL was expressed in HEK293T cells according to previously reported methods (see Niphakis, Long, and Blankman, J. L., et al. (2007) Chem. Biol. 14:1347-1356). Cell lysates were diluted with mock proteomes for use in competitive ABPP experiments.

ABHD6 = target: T2, ABHD6 (Mus musculus, UniProt Q8R2Y0); conditions: read-out: % Inhibition at 1 μM ABHD6
T2 sequence (Q8R2Y0 1-336): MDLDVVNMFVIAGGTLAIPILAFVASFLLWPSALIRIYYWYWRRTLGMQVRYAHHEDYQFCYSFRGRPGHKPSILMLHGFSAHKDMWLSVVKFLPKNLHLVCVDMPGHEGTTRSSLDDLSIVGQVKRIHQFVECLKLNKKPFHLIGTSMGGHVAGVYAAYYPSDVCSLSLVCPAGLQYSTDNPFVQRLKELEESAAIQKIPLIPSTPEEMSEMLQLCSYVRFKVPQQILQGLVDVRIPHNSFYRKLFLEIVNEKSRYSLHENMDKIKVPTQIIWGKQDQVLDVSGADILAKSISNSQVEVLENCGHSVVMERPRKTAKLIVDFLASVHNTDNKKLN
Experimental: as §1, §2

MAGL = target: T3, MAGL (Mus musculus, UniProt O35678); conditions: read-out: % Inhibition at 1 μM MAGL
T3 sequence (O35678 1-303): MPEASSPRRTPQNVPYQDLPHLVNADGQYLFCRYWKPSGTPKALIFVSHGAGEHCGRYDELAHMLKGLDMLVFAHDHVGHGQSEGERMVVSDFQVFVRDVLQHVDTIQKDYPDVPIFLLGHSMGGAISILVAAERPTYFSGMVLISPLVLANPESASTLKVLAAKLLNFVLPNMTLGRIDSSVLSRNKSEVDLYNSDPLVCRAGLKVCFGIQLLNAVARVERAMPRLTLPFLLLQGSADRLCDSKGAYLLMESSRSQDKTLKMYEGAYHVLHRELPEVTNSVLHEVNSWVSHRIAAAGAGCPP
Experimental: After 30 min, FP—Rh (1.0 μL, 50 μM in DMSO) was added and the mixture was incubated for another 30 min at 37° C. Reactions were quenched with SDS loading buffer (50 μL-4×) and run on SDS-PAGE.
Cell lysates were diluted with mock proteomes for use in competitive ABPP experiments.

## CC(=O)N1CCC(c2nn(C(C)C)cc2CN2CC3CN(C(=O)ON4C(=O)CCC4=O)CC3C2)CC1 (centres unmarked) [Example 119, 2,5-Dioxopyrrolidin-1-yl 5-[[3-(1-acetylpiperidin-4-yl)-1-(propan-2-yl)-1H-pyrazol-4-yl]methyl]-octahydropyrrolo[3,4-c]pyrrole-2-carboxylate]
FAAH
  inhibition at 1 µM: < 25%
ABHD6
  inhibition at 1 µM: < 25%
MAGL
  inhibition at 1 µM: < 25%

## CCn1cc(CN2CC3CN(C(=O)OC(C(F)(F)F)C(F)(F)F)CC3C2)c(-c2ccccn2)n1 (centres unmarked) [Example 70, 1,1,1,3,3,3-Hexafluoropropan-2-yl 5-[[1-ethyl-3-(pyridin-2-yl)-1H-pyrazol-4-yl]methyl]-octahydropyrrolo[3,4-c]pyrrole-2-carboxylate]
FAAH
  inhibition at 1 µM: < 25%
ABHD6
  inhibition at 1 µM: < 25%
MAGL
  inhibition at 1 µM: 25 to 75%

## Cc1cccc(CN2CC3CN(C(=O)ON4C(=O)CCC4=O)CC3C2)c1N1CCN(C)CC1 (centres unmarked) [Example 138, 2,5-dioxopyrrolidin-1-yl 5-[[3-methyl-2-(4-methylpiperazin-1-yl)phenyl]methyl]-octahydropyrrolo[3,4-c]pyrrole-2-carboxylate]
FAAH
  inhibition at 1 µM: < 25%
ABHD6
  inhibition at 1 µM: < 25%
MAGL
  inhibition at 1 µM: < 25%

## CC(=O)NC1CCN(c2cccc(CN3CC4CN(C(=O)ON5C(=O)CCC5=O)CC4C3)c2C)CC1 (centres unmarked) [Example 142, 2,5-dioxopyrrolidin-1-yl 5-[[3-(4-acetamidopiperidin-1-yl)-2-methylphenyl]methyl]-octahydropyrrolo[3,4-c]pyrrole-2-carboxylate]
FAAH
  inhibition at 1 µM: < 25%
ABHD6
  inhibition at 1 µM: < 25%
MAGL
  inhibition at 1 µM: < 25%

## CC(=O)N1CCN(c2cc(Cl)ccc2CN2CC3CN(C(=O)ON4C(=O)CCC4=O)CC3C2)CC1 (centres unmarked) [Example 96, 2,5-Dioxopyrrolidin-1-yl 5-[[2-(4-acetylpiperazin-1-yl)-4-chlorophenyl]methyl]-octahydropyrrolo[3,4-c]pyrrole-2-carboxylate]
FAAH
  inhibition at 1 µM: < 25%
ABHD6
  inhibition at 1 µM: < 25%
MAGL
  inhibition at 1 µM: < 25%

## O=C(ON1C(=O)CCC1=O)N1CC2CN(Cc3ccc(C(=O)N4CCC4)cc3F)CC2C1 (centres unmarked) [Example 168, 2,5-dioxopyrrolidin-1-yl5-(4-(azetidine-1-carbonyl)-2-fluorobenzyl)-hexahydropyrrolo[3,4-c]pyrrole-2(1H)-carboxylate]
ABHD6
  inhibition at 1 µM: < 25%

## Cc1cccc(-c2cc(CN3CC4CN(C(=O)ON5C(=O)CCC5=O)CC4C3)n(C)n2)c1 (centres unmarked) [Example 199, 2,5-dioxopyrrolidin-1-yl 5-((1-methyl-3-(m-tolyl)-1H-pyrazol-5-yl)methyl)hexahydropyrrolo[3,4-c]pyrrole-2(1H)-carboxylate]
FAAH
  inhibition at 1 µM: < 25%
ABHD6
  inhibition at 1 µM: < 25%
MAGL
  inhibition at 1 µM: 25 to 75%

## Cn1cc(CN2CC3CN(C(=O)OC(C(F)(F)F)C(F)(F)F)CC3C2)c(C2CCN(S(C)(=O)=O)CC2)n1 (centres unmarked) [Example 56, 1,1,1,3,3,3-Hexafluoropropan-2-yl 5-[[3-(1-methanesulfonylpiperidin-4-yl)-1-methyl-1H-pyrazol-4-yl]methyl]-octahydropyrrolo[3,4-c]pyrrole-2-carboxylate]
FAAH
  inhibition at 1 µM: < 25%
ABHD6
  inhibition at 1 µM: < 25%
MAGL
  inhibition at 1 µM: > 75%

## CC(=O)N1CCN(c2ccc(CN3CC4CN(C(=O)ON5C(=O)CCC5=O)CC4C3)c(Cl)c2)CC1 (centres unmarked) [Example 103, 2,5-Dioxopyrrolidin-1-yl 5-[[4-(4-acetylpiperazin-1-yl)-2-chlorophenyl]methyl]-octahydropyrrolo[3,4-c]pyrrole-2-carboxylate]
FAAH
  inhibition at 1 µM: < 25%
ABHD6
  inhibition at 1 µM: < 25%
MAGL
  inhibition at 1 µM: < 25%

## O=C(ON1C(=O)CCC1=O)N1CC2CN(Cc3ccc(Cl)cc3N3Cc4cccnc4C3)CC2C1 (centres unmarked) [Example 107, 2,5-Dioxopyrrolidin-1-yl 5-[(4-chloro-2-[5H,6H,7H-pyrrolo[3,4-b]pyridin-6-yl]phenyl)methyl]-octahydropyrrolo[3,4-c]pyrrole-2-carboxylate]
FAAH
  inhibition at 1 µM: 25 to 75%
ABHD6
  inhibition at 1 µM: 25 to 75%
MAGL
  inhibition at 1 µM: 25 to 75%

## CC(=O)N1CCC(c2nn(C)cc2CN2CC3CN(C(=O)ON4C(=O)CCC4=O)CC3C2)CC1 (centres unmarked) [Example 116, 2,5-Dioxopyrrolidin-1-yl 5-[[3-(1-acetylpiperidin-4-yl)-1-methyl-1H-pyrazol-4-yl]methyl]-octahydropyrrolo[3,4-c]pyrrole-2-carboxylate]
FAAH
  inhibition at 1 µM: < 25%
ABHD6
  inhibition at 1 µM: < 25%
MAGL
  inhibition at 1 µM: < 25%

## CC(C)c1ccc(CN2CC3CN(C(=O)ON4C(=O)CCC4=O)CC3C2)c(N2CCOCC2)c1 (centres unmarked) [Example 97, 2,5-Dioxopyrrolidin-1-yl 5-[[2-(morpholin-4-yl)-4-(propan-2-yl)phenyl]methyl]-octahydropyrrolo[3,4-c]pyrrole-2-carboxylate]
FAAH
  inhibition at 1 µM: < 25%
ABHD6
  inhibition at 1 µM: < 25%
MAGL
  inhibition at 1 µM: < 25%

## O=C(ON1C(=O)CCC1=O)N1CC2CN(Cc3ccc(Cl)cc3N3CCN4CCC[C@@H]4C3)CC2C1 (stereo partly drawn) [Example 109, 2,5-Dioxopyrrolidin-1-yl 5-(4-chloro-2-((R)-hexahydropyrrolo[1,2-a]pyrazin-2(1H)-yl)benzyl)-hexahydropyrrolo[3,4-c]pyrrole-2(1H)-carboxylate]
FAAH
  inhibition at 1 µM: < 25%
ABHD6
  inhibition at 1 µM: < 25%
MAGL
  inhibition at 1 µM: < 25%

## Cn1cc(CN2CC3CN(C(=O)ON4C(=O)CCC4=O)CC3C2)c(-c2ccccc2Cl)n1 (centres unmarked) [Example 115, 2,5-Dioxopyrrolidin-1-yl 5-[[3-(2-chlorophenyl)-1-methyl-1H-pyrazol-4-yl]methyl]-octahydropyrrolo[3,4-c]pyrrole-2-carboxylate]
FAAH
  inhibition at 1 µM: < 25%
ABHD6
  inhibition at 1 µM: < 25%
MAGL
  inhibition at 1 µM: 25 to 75%

## CC(C)c1cc(CN2CC3CN(C(=O)ON4C(=O)CCC4=O)CC3C2)n(C2CCCCC2)n1 (centres unmarked) [Example 123, 2,5-Dioxopyrrolidin-1-yl 5-[[1-cyclohexyl-3-(propan-2-yl)-1H-pyrazol-5-yl]methyl]-octahydropyrrolo[3,4-c]pyrrole-2-carboxylate]
FAAH
  inhibition at 1 µM: < 25%
ABHD6
  inhibition at 1 µM: > 75%
MAGL
  inhibition at 1 µM: 25 to 75%

## O=C(ON1C(=O)CCC1=O)N1CC2CN(Cc3ccc(F)cc3N3CCOCC3)CC2C1 (centres unmarked) [Example 89, 2,5-Dioxopyrrolidin-1-yl 5-[[4-fluoro-2-(morpholin-4-yl)phenyl]methyl]-octahydropyrrolo[3,4-c]pyrrole-2-carboxylate]
FAAH
  inhibition at 1 µM: < 25%
ABHD6
  inhibition at 1 µM: < 25%
MAGL
  inhibition at 1 µM: < 25%

## O=C(ON1C(=O)CCC1=O)N1CC2CN(Cc3ccc(C(=O)N4CCCCC4)cc3Cl)CC2C1 (centres unmarked) [Example 161, 2,5-dioxopyrrolidin-1-yl 5-([2-chloro-4-[(piperidin-1-yl)carbonyl]phenyl]methyl)-octahydropyrrolo[3,4-c]pyrrole-2-carboxylate]
FAAH
  inhibition at 1 µM: 25 to 75%
ABHD6
  inhibition at 1 µM: 25 to 75%
MAGL
  inhibition at 1 µM: 25 to 75%

## CC(=O)N1CCC(n2nc(C)cc2CN2CC3CN(C(=O)ON4C(=O)CCC4=O)CC3C2)CC1 (centres unmarked) [Example 122, 2,5-Dioxopyrrolidin-1-yl 5-[[1-(1-acetylpiperidin-4-yl)-3-methyl-1H-pyrazol-5-yl]methyl]-octahydropyrrolo[3,4-c]pyrrole-2-carboxylate]
FAAH
  inhibition at 1 µM: < 25%
ABHD6
  inhibition at 1 µM: < 25%
MAGL
  inhibition at 1 µM: < 25%

## O=C(ON1C(=O)CCC1=O)N1CC2CN(Cc3ccc(C(=O)N4CCCC4)cc3F)CC2C1 (centres unmarked) [Example 167, 2,5-dioxopyrrolidin-1-yl5-(2-fluoro-4-(pyrrolidine-1-carbonyl)benzyl)-hexahydropyrrolo[3,4-c]pyrrole-2(1H)-carboxylate]
ABHD6
  inhibition at 1 µM: < 25%
